Measurements as given in PubChem BioAssay AID248 (DTP/NCI, 2004).
Values joined by “and” are separate entries in the source; they are usually repeats but may differ in a detail not shown here. Equal entries are not always repeated. Toxic doses and inconclusive results are not listed. No stated cut-off is given here; in the data, active means T/C of 150% or more; inactive means T/C below 125%.

System: L1210 leukemia ip in BDF1 mice, survival T/C
Assay: NCI In Vivo Anticancer Drug Screen. Data for tumor model L1210 Leukemia (intraperitoneal) in B6D2F1 (BDF1) mice
Conditions: higher = longer survival
Description: The antitumor activity of compounds was measured in mice bearing transplantable tumors. Survival or tumor size were measured and the results are expressed as the measurement made in the treated group (T) divided by the measurement made in the vehicle treated control group (C). The tumor model used in this assay is L1210 Leukemia (intraperitoneal) in B6D2F1 (BDF1) mice

[1] = endpoint: mean survival time, dose: 100.0 mg/kg/injection, schedule: Q01DX001 (ip), vehicle: saline with Tween-80
[2] = endpoint: mean survival time, dose: 200.0 mg/kg/injection, schedule: Q01DX001 (ip), vehicle: saline with Tween-80

Measured: T/C

NC(=O)c1[nH]nc(C2OC(CO)C(O)C2O)c1O (configuration not stated)
inactive: endpoint: mean survival time, dose: 2.5 mg/kg/injection, schedule: Q01DX009 (ip), vehicle: saline 115 % of control | endpoint: mean survival time, dose: 2.5 mg/kg/injection, schedule: Q04DX003 (ip), vehicle: saline 110 % of control | endpoint: mean survival time, dose: 5.0 mg/kg/injection, schedule: Q01DX001 (ip), vehicle: saline 109 % of control | endpoint: mean survival time, dose: 5.0 mg/kg/injection, schedule: Q01DX009 (ip), vehicle: saline 96 % of control | endpoint: mean survival time, dose: 5.0 mg/kg/injection, schedule: Q04DX003 (ip), vehicle: saline 111 % of control and 123 % of control | endpoint: mean survival time, dose: 6.6 mg/kg/injection, schedule: Q04DX003 (ip), vehicle: saline 107 % of control | endpoint: mean survival time, dose: 10.0 mg/kg/injection, schedule: Q01DX001 (ip), vehicle: saline 113 % of control | endpoint: mean survival time, dose: 10.0 mg/kg/injection, schedule: Q04DX003 (ip), vehicle: saline 113 % of control and 121 % of control | endpoint: mean survival time, dose: 20.0 mg/kg/injection, schedule: Q01DX001 (ip), vehicle: saline 111 % of control | endpoint: mean survival time, dose: 20.0 mg/kg/injection, schedule: Q04DX003 (ip), vehicle: saline 121 % of control | endpoint: median survival time, dose: 0.5 mg/kg/injection, schedule: Q04DX003 (ip), vehicle: saline 108 % of control | endpoint: median survival time, dose: 1.0 mg/kg/injection, schedule: Q04DX003 (ip), vehicle: saline 106 % of control and 107 % of control | endpoint: median survival time, dose: 2.0 mg/kg/injection, schedule: Q04DX003 (ip), vehicle: saline 107 % of control and 112 % of control | endpoint: median survival time, dose: 4.0 mg/kg/injection, schedule: Q04DX003 (ip), vehicle: saline 109 % of control and 118 % of control | endpoint: median survival time, dose: 8.0 mg/kg/injection, schedule: Q04DX003 (ip), vehicle: saline 112 % of control and 121 % of control

CC(=O)Nc1c(I)cc2c(c1I)Cc1cc([N+](=O)[O-])ccc1-2
inactive: endpoint: mean survival time, dose: 100.0 mg/kg/injection, schedule: Q01DX001 (ip), vehicle: carboxymethylcellulose (CMC) 98 % of control | endpoint: mean survival time, dose: 200.0 mg/kg/injection, schedule: Q01DX001 (ip), vehicle: carboxymethylcellulose (CMC) 104 % of control | endpoint: mean survival time, dose: 400.0 mg/kg/injection, schedule: Q01DX001 (ip), vehicle: carboxymethylcellulose (CMC) 93 % of control

CC1CCC2(C(=O)O)CCC3(C)C(=CCC4C5(C)CC(O)C(O)C(C)(C(=O)O)C5CCC43C)C2C1(C)O (configuration not stated)
inactive: endpoint: mean survival time, dose: 100.0 mg/kg/injection, schedule: Q01DX001 (ip), vehicle: alkali diluted with saline 94 % of control | [1] 97 % of control | endpoint: mean survival time, dose: 200.0 mg/kg/injection, schedule: Q01DX001 (ip), vehicle: alkali diluted with saline 100 % of control | [2] 89 % of control

Cc1ccc(N=NNc2ccc(C)cc2)cc1
inactive: endpoint: mean survival time, dose: 25.0 mg/kg/injection, schedule: Q01DX009 (ip), vehicle: Klucel (hydroxypropylcellulose) (HPC) 96 % of control | endpoint: mean survival time, dose: 50.0 mg/kg/injection, schedule: Q01DX009 (ip), vehicle: Klucel (hydroxypropylcellulose) (HPC) 97 % of control | endpoint: mean survival time, dose: 75.0 mg/kg/injection, schedule: Q04DX003 (ip), vehicle: Klucel (hydroxypropylcellulose) (HPC) 100 % of control | endpoint: mean survival time, dose: 100.0 mg/kg/injection, schedule: Q01DX009 (ip), vehicle: Klucel (hydroxypropylcellulose) (HPC) 97 % of control | endpoint: mean survival time, dose: 150.0 mg/kg/injection, schedule: Q04DX003 (ip), vehicle: Klucel (hydroxypropylcellulose) (HPC) 100 % of control | endpoint: mean survival time, dose: 300.0 mg/kg/injection, schedule: Q04DX003 (ip), vehicle: Klucel (hydroxypropylcellulose) (HPC) 100 % of control

CCOC(=O)/C=C(/N)c1c(C)[nH]c2ccccc12
inactive: endpoint: mean survival time, dose: 100.0 mg/kg/injection, schedule: Q01DX001 (ip), vehicle: saline 102 % of control | endpoint: mean survival time, dose: 200.0 mg/kg/injection, schedule: Q01DX001 (ip), vehicle: saline 113 % of control | endpoint: mean survival time, dose: 400.0 mg/kg/injection, schedule: Q01DX001 (ip), vehicle: saline 87 % of control

CC(C)C/C=N/Nc1ccnc(SCc2ccccc2)n1
inactive: endpoint: mean survival time, dose: 100.0 mg/kg/injection, schedule: Q04DX003 (ip), vehicle: DMSO 95 % of control | endpoint: mean survival time, dose: 200.0 mg/kg/injection, schedule: Q04DX003 (ip), vehicle: DMSO 103 % of control | endpoint: mean survival time, dose: 400.0 mg/kg/injection, schedule: Q04DX003 (ip), vehicle: DMSO 95 % of control

O=C(O)c1ccc(CCc2ccc(Cl)c(S(=O)(=O)F)c2)cc1
inactive: [1] 94 % of control | [2] 92 % of control | endpoint: mean survival time, dose: 400.0 mg/kg/injection, schedule: Q01DX001 (ip), vehicle: saline with Tween-80 91 % of control
